Like-named read-outs stand apart in the source and are kept apart here.
Key:
[1] = test system: pressor responses to oral tyramine; conditions: rats, cited from earlier work
[2] = target: T1, MAO-A (Rattus norvegicus, UniProt P21396); conditions: 0.3 mg/kg, 1 hour after treatment
Excerpt: (§1) Adult (3-month old) male Sprague Dawley rats, weighing about 250 grams, were from Harlan Laboratories, Inc Israel.

[3] = target: T2, MAO-B (Rattus norvegicus, UniProt P19643); conditions: 0.1 and 0.3 mg/kg, 1 hour after treatment
T2 sequence (P19643 whole entry): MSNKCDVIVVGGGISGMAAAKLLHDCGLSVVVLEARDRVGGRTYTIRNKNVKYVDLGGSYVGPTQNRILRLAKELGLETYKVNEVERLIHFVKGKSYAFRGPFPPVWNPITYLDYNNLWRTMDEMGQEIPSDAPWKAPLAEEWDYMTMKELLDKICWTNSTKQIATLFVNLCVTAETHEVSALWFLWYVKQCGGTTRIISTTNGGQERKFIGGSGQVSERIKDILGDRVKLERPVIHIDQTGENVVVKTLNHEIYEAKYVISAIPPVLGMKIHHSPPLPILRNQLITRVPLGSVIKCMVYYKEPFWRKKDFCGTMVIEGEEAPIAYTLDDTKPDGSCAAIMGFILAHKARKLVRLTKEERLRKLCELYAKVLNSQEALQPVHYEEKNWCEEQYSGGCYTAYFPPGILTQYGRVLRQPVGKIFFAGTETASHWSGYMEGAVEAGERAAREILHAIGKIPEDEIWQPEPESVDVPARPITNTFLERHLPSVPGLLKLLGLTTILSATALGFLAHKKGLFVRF
Excerpt: as §1

[4] = target: T1, MAO-A
Experimental: (§2) The animals were acutely administered and sacrificed 4 hours following drug/vehicle administration. The brain regions, hippocampus and striatum, as well as the small intestine were dissected out. All tissues were frozen at −80° C. for further analysis.

[5] = target: T2, MAO-B; conditions: both regimens (intranasal and oral), 0.24 and 0.6 mg/Kg, p<0.05, data not shown
Experimental: as §2

[6] = target: T1, MAO-A; assay: in vivo; conditions: for inhibition at 6 mg/kg / inhibition at 0.6 mg/kg / inhibition at 1.5 mg/kg: rat, inhaled or nasal
Experimental: (§3) Control liquid formulations included vehicle only.
(§4) The animals were acutely administered intranasally and sacrificed 4 hours following drug/vehicle administration. The brain regions, hippocampus and striatum, as well as the small intestine were dissected out. […] In brief, samples were dissected out at 4° C. and homogenized. Homogenates were incubated with [C^14]serotonin for 30 minutes (final concentration 100 μM) as a substrate for MAO-A, or with [C^14]phenylethylamine for 20 minutes (final concentration 100 μM) as a substrate for MAO-B. The radioactivity was determined by liquid- scintillation.

[7] = target: T2, MAO-B; assay: in vivo
Experimental: as §3, §4

[8] = extensive first pass hepatic metabolism; cited from earlier work

T1 sequence (P21396 whole entry): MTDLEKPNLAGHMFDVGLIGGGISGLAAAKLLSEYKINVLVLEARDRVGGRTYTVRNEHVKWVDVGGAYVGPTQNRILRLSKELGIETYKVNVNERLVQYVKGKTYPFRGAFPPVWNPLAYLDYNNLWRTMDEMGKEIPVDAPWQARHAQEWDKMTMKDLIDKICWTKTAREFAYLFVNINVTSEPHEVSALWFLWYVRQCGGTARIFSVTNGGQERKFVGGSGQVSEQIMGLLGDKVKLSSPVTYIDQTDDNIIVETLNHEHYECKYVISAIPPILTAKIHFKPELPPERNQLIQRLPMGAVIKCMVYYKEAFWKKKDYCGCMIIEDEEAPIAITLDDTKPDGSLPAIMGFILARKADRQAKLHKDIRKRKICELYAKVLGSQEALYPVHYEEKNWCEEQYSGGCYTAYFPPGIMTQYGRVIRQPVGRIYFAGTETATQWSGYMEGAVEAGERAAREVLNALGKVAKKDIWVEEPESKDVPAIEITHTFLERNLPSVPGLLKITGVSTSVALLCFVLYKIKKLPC

## C#CCN[C@@H]1CCc2ccccc21 [Rasagiline, N-propargyl-1-(R)-aminoindan]
[1]; 10 mg/kg oral dose
  cheese reaction (MAO-A and MAO-B both inhibited): induces the “cheese reaction”
[1]; 21 days chronic treatment, oral doses up to 2 mg/kg daily
  potentiation of pressor responses to oral tyramine: does not potentiate
[1]; single oral doses up to 5 mg/kg
  potentiation of pressor responses to oral tyramine: does not potentiate
[2]; FIG. 1
  brain MAO-A inhibition, NAS delivery compared to IP: significantly inhibited
[2]; FIG. 3
  liver MAO-A inhibition, IP compared to NAS delivery: significantly inhibited
[3]; FIG. 2
  difference in brain MAO-B inhibition between IP and NAS: no significant difference
[3]; FIG. 4
  differences in liver MAO-B inhibition between IP and NAS: No significant differences
[4]; 0.24 and 0.6 mg/Kg, 4 h, FIGS. 8A-B
  MAO-A inhibition in striatum and hippocampus, intranasal (powder) compared to oral: significantly increased
[4]; 0.24 and 0.6 mg/kg, FIG. 9
  MAO-A inhibition in the periphery (small intestine), intranasal compared to P.O.: significantly lower
[5]
  MAO-B activity inhibition in striatum and hippocampus: about 99%
[6]; intranasal powder formulation, 0.24, 0.6, 1.5 and 6 mg/kg, FIG. 6
  MAO-A activity in striatum and hippocampus, dose dependence: dose-dependently inhibited
[6]; intranasal, 0.6 mg/kg, FIG. 5
  striatal MAO-A inhibition, powder compared to liquid formulation: significant higher inhibition
[6]; read-out: MAO-A inhibition in striatum and hippocampus, intranasal, 6 mg/kg powder formulation
  inhibition at 6 mg/kg: > 90%
[6]; read-out: MAO-A inhibition, Brain, intranasal, 0.6 mg/kg liquid formulation, 4 h
  inhibition at 0.6 mg/kg: 33%
[6]; read-out: MAO-A inhibition, Brain, intranasal, 0.6 mg/kg powder formulation, 4 h
  inhibition at 0.6 mg/kg: 44%
[6]; read-out: MAO-A inhibition, Brain, intranasal, 6 mg/kg liquid formulation, 4 h
  inhibition at 6 mg/kg: 91%
[6]; read-out: MAO-A inhibition, Hippocampus, intranasal, 1.5 mg/kg powder formulation, 4 h
  inhibition at 1.5 mg/kg: 86%
[6]; read-out: MAO-A inhibition, Intestine, intranasal, 0.6 mg/kg liquid formulation, 4 h
  inhibition at 0.6 mg/kg: 32%
[6]; read-out: MAO-A inhibition, Intestine, intranasal, 0.6 mg/kg powder formulation, 4 h
  inhibition at 0.6 mg/kg: 42%
[6]; read-out: MAO-A inhibition, Intestine, intranasal, 1.5 mg/kg powder formulation, 4 h
  inhibition at 1.5 mg/kg: 74%
[6]; read-out: MAO-A inhibition, Intestine, intranasal, 6 mg/kg liquid formulation, 4 h
  inhibition at 6 mg/kg: 86%
[6]; read-out: MAO-A inhibition, Intestine, intranasal, 6 mg/kg powder formulation, 4 h
  inhibition at 6 mg/kg: 92%
[6]; read-out: MAO-A inhibition, Liver, intranasal, 0.6 mg/kg liquid formulation, 4 h
  inhibition at 0.6 mg/kg: 19%
[6]; read-out: MAO-A inhibition, Liver, intranasal, 0.6 mg/kg powder formulation, 4 h
  inhibition at 0.6 mg/kg: 44%
[6]; read-out: MAO-A inhibition, Liver, intranasal, 6 mg/kg liquid formulation, 4 h
  inhibition at 6 mg/kg: 83%
[6]; read-out: MAO-A inhibition, Striatum, intranasal, 0.6 mg/kg powder formulation, 4 h
  inhibition at 0.6 mg/kg: 61%
[6]; read-out: MAO-A inhibition, Striatum, intranasal, 6 mg/kg powder formulation, 4 h
  inhibition at 6 mg/kg: 98%
[7]; intranasal, 0.24 to 6 mg/kg, both powder and liquid formulations, p<0.05 vs vehicle
  MAO-B activity inhibition in striatum and hippocampus: about 98%
[7]; rat, inhaled or nasal, read-out: MAO-B Inhibition, Intestine, intranasal, 0.6 mg/kg liquid formulation, 4 h
  inhibition at 0.6 mg/kg: 63%
[7]; rat, inhaled or nasal, read-out: MAO-B Inhibition, Intestine, intranasal, 0.6 mg/kg powder formulation, 4 h
  inhibition at 0.6 mg/kg: 68%
[7]; rat, inhaled or nasal, read-out: MAO-B Inhibition, Intestine, intranasal, 1.5 mg/kg powder formulation, 4 h
  inhibition at 1.5 mg/kg: 72%
[7]; rat, inhaled or nasal, read-out: MAO-B Inhibition, Intestine, intranasal, 6 mg/kg liquid formulation, 4 h
  inhibition at 6 mg/kg: 75%
[7]; rat, inhaled or nasal, read-out: MAO-B Inhibition, Intestine, intranasal, 6 mg/kg powder formulation, 4 h
  inhibition at 6 mg/kg: 78%

## C#CCN(C)[C@H](C)Cc1ccccc1 [Selegiline, (R)-N-methyl-N-(1-phenylpropan-2-yl)prop-1-yn-3-amine]
[8]
  oral bioavailability: 4-10%

— patent publication US20170151192A1, “METHODS, COMPOSITIONS AND DEVICES FOR TREATMENT OF MOTOR AND DEPRESSION SYMPTOMS ASSOCIATED WITH PARKINSON'S DISEASE” (N TO B LTD., priority 2013, published 2017)
